# ChEMBL document CHEMBL1201862, “PubChem BioAssay data set” (2004)
# Active and inactive are the calls of the source.
# How the values were obtained:
# Assay type in all cases: functional
# [1] = molecular target: Serine/threonine-protein kinase PLK4 (Homo sapiens, UniProt O00444);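 further: PLK4 measured as one member of a kinome-wide kinase profiling panel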
# Ephrin type-A receptor 2 = Ephrin type-A receptor 2 (Homo sapiens, UniProt P29317);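 further: EPHA2 tested as one member of a kinome-wide kinase panel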
# [2] = molecular target: Mitogen-activated protein kinase kinase kinase 20 (Homo sapiens, UniProt Q9NYL2)
# [3] = molecular target: Serine/threonine-protein kinase PLK1 (Homo sapiens, UniProt P53350);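 further: PLK1 measured as one member of a kinome-wide profiling panel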
# Serine/threonine-protein kinase PLK1, sequence (P53350 whole entry): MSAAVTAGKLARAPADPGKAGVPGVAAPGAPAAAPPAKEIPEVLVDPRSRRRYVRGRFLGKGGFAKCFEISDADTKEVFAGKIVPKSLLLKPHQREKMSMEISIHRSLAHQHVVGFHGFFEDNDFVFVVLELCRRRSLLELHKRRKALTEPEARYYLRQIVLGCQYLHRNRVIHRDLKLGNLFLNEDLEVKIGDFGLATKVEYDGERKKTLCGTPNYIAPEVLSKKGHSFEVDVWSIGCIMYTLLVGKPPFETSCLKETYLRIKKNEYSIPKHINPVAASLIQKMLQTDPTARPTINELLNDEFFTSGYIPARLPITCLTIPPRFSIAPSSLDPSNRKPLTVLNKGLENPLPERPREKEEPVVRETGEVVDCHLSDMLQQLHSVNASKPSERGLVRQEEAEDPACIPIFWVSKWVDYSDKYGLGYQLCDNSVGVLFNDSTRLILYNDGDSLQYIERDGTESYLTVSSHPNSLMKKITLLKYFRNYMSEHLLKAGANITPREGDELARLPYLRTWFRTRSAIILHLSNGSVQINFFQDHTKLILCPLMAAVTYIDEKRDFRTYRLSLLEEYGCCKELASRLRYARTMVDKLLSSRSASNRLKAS
# [4] = molecular target: Casein kinase II subunit alpha (Homo sapiens, UniProt P68400)
# Casein kinase II subunit alpha, sequence (P68400 whole entry): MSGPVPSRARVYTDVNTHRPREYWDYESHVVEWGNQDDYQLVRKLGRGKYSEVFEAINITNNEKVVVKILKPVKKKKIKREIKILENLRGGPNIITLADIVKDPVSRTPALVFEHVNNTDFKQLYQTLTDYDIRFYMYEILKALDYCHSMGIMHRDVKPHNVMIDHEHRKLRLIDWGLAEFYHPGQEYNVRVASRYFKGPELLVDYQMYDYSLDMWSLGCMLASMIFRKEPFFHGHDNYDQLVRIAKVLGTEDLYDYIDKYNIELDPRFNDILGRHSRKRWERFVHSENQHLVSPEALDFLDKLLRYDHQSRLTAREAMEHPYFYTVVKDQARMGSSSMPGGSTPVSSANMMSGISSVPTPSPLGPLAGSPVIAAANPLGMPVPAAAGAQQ
# [5] = molecular target: Ribosomal protein S6 kinase alpha-3 (Homo sapiens, UniProt P51812);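 further: measured within a kinome-wide profiling panel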
# [6] = molecular target: Cyclin-dependent kinase 1 (Homo sapiens, UniProt P06493);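 further: Kinome-wide panel profiling, with the target listed as panel member CDC2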
# Cyclin-dependent kinase 1, sequence (P06493 whole entry): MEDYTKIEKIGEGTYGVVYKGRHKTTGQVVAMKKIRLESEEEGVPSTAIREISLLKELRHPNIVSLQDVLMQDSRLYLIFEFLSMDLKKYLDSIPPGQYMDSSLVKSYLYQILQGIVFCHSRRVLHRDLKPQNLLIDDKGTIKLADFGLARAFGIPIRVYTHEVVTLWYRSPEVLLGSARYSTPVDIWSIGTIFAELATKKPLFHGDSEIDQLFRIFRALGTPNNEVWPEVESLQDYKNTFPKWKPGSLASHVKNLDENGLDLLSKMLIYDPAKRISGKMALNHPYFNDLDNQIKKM
# [7] = molecular target: Fibroblast growth factor receptor 1 (Homo sapiens, UniProt P11362)
# [8] = molecular target: Protein kinase C iota type (Homo sapiens, UniProt P41743);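 further: measured within a kinome-wide kinase panel, PRKCI as panel member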
# Protein kinase C iota type, sequence (P41743 whole entry): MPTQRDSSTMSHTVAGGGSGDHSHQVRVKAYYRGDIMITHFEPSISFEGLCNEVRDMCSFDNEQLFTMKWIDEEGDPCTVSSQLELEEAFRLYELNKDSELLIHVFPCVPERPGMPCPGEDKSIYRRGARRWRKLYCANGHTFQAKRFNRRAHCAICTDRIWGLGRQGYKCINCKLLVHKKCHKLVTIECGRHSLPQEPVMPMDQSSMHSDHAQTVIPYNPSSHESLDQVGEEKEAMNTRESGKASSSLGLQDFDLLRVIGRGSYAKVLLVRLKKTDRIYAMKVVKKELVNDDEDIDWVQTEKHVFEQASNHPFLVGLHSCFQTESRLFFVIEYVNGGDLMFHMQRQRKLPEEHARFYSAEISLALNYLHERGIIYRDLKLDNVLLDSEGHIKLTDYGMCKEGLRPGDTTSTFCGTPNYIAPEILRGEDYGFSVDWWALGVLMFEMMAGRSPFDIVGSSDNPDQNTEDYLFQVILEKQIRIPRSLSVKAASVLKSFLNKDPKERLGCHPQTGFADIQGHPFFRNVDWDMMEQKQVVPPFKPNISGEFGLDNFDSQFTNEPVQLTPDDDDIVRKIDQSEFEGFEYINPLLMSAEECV
# [9] = molecular target: 3-phosphoinositide-dependent protein kinase 1 (Homo sapiens, UniProt O15530);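 further: value comes from the Navigating the Kinome panel, PDPK1 member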
# [10] = molecular target: Mitogen-activated protein kinase 9 (Homo sapiens, UniProt P45984);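 further: value from a kinome panel profiling assay, MAPK9 panel entry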
# [11] = molecular target: Serine/threonine-protein kinase DCLK1 (Homo sapiens, UniProt O15075);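 further: affinity for DCLK1 (listed as DCAMKL1) measured as one member of a kinome-wide kinase profiling panel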
# Serine/threonine-protein kinase DCLK1, sequence (O15075 whole entry): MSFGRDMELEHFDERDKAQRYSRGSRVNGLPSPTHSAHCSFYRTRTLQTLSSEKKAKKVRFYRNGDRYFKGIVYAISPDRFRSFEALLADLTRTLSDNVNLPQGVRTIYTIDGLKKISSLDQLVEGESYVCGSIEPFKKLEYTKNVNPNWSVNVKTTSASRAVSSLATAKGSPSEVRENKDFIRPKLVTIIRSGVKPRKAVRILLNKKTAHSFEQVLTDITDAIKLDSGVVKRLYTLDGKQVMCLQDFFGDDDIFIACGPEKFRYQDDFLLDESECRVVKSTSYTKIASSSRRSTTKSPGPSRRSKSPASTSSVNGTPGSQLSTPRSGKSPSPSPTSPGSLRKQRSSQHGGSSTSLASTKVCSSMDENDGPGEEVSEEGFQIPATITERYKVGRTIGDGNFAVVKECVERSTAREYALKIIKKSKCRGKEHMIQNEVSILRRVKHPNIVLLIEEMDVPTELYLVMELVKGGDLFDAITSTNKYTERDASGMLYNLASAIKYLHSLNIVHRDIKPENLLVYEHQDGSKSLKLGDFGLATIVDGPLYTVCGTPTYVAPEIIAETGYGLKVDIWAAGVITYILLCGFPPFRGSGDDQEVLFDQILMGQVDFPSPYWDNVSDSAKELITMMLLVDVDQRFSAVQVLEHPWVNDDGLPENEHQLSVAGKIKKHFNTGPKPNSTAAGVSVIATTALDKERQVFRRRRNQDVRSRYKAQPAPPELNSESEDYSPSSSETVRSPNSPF
# [12] = molecular target: Non-receptor tyrosine-protein kinase TYK2 (Homo sapiens, UniProt P29597)
# Insulin receptor = Insulin receptor (Homo sapiens, UniProt P06213);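 further: insulin receptor kinase tested as one member of a kinome-wide kinase panel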
# Insulin receptor, sequence (P06213 28-758 limits assumed): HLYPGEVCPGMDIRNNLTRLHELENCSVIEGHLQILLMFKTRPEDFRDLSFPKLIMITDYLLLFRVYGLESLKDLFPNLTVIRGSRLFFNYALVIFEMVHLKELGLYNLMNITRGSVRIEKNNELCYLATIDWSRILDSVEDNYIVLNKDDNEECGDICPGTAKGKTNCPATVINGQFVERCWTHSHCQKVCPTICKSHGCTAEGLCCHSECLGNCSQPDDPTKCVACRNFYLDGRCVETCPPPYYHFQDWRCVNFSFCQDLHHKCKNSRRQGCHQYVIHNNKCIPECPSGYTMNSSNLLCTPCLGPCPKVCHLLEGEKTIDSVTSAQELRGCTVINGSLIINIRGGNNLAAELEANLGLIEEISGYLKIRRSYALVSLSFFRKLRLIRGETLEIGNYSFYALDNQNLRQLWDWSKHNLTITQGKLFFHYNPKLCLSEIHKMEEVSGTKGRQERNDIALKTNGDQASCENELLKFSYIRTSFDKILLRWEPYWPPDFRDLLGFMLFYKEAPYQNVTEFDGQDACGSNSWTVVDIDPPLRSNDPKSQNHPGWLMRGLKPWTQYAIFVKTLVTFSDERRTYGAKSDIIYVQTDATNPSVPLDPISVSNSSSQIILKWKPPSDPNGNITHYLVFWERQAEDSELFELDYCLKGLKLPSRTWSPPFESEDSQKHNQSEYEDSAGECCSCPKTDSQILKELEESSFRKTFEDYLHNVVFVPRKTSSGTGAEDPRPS
# Insulin receptor, sequence (P06213 763-1382 limits assumed): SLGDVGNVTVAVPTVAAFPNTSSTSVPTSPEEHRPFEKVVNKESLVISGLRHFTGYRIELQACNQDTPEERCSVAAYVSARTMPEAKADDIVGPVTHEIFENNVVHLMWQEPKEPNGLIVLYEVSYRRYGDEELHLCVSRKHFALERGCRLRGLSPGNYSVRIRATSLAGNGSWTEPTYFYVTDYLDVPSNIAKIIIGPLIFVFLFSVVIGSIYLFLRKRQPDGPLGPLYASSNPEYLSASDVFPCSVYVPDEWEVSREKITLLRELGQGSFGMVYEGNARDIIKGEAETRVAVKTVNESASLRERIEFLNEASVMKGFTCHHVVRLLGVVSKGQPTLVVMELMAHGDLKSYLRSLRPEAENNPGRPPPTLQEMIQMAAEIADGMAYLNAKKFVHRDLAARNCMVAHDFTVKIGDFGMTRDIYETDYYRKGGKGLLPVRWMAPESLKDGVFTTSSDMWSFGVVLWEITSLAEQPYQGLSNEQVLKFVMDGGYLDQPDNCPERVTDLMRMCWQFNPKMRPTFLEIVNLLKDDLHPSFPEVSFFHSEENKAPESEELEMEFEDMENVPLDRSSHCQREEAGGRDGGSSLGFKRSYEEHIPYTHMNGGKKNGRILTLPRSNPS
# [13] = molecular target: T1, Apoptotic protease-activating factor 1 (Homo sapiens, UniProt O14727)
# T1 sequence (O14727 whole entry): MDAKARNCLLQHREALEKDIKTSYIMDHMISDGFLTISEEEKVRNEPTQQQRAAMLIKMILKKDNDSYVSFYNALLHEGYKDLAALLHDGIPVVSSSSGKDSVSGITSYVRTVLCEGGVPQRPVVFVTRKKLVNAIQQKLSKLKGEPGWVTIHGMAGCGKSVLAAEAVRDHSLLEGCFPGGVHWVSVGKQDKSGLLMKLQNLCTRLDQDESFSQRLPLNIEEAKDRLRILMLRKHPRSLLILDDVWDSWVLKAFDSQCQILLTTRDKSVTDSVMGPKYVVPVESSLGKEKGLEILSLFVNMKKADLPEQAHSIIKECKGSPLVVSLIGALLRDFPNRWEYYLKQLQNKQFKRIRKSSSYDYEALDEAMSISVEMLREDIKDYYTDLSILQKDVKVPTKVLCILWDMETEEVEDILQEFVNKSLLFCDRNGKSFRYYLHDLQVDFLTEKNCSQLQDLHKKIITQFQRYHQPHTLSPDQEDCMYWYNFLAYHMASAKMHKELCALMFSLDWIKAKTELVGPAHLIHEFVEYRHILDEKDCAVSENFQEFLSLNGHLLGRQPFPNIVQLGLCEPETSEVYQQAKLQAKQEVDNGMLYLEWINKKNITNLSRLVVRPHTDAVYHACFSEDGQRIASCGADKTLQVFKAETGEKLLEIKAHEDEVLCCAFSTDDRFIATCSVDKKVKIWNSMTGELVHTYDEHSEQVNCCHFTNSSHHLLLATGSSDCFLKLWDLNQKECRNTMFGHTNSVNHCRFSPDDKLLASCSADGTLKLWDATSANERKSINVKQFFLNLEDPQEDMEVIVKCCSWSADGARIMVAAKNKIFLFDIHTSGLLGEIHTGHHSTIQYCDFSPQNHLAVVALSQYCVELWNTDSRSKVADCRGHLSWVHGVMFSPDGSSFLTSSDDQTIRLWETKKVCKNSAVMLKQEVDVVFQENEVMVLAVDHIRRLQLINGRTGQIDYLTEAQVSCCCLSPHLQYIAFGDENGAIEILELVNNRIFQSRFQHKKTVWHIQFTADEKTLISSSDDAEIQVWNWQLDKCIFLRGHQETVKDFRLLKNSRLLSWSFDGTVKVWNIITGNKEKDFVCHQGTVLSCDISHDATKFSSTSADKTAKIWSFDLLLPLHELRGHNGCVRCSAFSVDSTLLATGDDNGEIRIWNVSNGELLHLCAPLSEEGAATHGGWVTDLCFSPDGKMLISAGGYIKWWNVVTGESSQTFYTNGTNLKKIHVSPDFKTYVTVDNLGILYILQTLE
# Protein RecA = molecular target: T2, Protein RecA (Mycobacterium tuberculosis, UniProt P9WHJ3); assay: Fluorescence Cell-Free Homogeneous Dose Retest to Identify Inhibitors of RecA-Intein Splicing Activity. [Related pubchem assays (depositor defined):AID2097, AID2223, AID489010, AID492950]
# T2 sequence (P9WHJ3 whole entry): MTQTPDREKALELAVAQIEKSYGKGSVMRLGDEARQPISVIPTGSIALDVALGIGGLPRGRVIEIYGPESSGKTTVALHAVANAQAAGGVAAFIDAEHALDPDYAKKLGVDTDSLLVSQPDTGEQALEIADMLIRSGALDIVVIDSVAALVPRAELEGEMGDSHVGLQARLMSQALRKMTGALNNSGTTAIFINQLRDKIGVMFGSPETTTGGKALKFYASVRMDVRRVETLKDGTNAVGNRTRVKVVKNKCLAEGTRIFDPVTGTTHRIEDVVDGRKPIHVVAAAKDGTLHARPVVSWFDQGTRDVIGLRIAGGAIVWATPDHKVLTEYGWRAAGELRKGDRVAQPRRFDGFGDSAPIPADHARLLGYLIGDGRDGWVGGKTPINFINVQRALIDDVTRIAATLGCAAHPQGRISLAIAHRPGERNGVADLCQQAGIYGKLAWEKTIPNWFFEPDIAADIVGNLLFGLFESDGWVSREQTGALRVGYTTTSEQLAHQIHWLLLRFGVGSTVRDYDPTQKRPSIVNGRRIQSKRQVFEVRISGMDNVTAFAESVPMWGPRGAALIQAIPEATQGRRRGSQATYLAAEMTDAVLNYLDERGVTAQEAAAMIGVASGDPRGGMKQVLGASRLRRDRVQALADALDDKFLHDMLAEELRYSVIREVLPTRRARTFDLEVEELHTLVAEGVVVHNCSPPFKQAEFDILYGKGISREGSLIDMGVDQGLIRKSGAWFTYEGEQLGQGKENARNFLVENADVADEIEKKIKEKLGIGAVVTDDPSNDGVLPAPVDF
# Serine/threonine-protein kinase PLK4, sequence (O00444 whole entry): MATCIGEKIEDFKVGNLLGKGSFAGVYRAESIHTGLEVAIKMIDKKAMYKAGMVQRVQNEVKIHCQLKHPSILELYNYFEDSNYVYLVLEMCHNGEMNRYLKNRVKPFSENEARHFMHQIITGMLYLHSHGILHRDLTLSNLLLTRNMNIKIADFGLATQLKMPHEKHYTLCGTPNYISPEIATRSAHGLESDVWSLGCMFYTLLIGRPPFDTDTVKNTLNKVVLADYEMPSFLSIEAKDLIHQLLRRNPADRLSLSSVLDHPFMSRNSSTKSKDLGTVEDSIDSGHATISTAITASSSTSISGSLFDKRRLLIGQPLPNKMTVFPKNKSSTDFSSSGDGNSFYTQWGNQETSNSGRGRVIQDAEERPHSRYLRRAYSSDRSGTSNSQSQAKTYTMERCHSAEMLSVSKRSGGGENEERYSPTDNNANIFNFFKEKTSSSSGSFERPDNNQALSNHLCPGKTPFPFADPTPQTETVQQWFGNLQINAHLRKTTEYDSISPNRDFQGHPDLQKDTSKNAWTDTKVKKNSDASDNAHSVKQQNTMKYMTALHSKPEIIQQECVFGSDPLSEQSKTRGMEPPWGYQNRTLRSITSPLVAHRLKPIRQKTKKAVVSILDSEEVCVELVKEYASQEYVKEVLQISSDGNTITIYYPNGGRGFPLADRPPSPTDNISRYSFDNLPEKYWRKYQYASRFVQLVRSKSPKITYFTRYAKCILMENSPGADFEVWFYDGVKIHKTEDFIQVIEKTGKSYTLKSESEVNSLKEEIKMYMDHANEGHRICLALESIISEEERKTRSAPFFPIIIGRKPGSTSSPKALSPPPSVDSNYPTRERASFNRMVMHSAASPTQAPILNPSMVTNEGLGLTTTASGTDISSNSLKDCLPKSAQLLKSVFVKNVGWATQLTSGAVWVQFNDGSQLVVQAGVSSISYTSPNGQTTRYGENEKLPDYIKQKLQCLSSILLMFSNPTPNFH
Compound,Ki [1],Ki (Ephrin type-A receptor 2),Ki [2],Ki [3],Ki [4],Ki [5],Ki [6],Ki [7],Ki [8],Ki [9],Ki [10],Ki [11],Ki [12],Ki (Insulin receptor),IC50 [13],EC50 (Protein RecA)
Cn1cncc1C(OCc1c(-c2ccc(OC(F)(F)F)cc2)cc(C#N)c(=O)n1C)c1ccc(C#N)cc1 (stereo unspecified),> 3.98 µM (inactive),> 3.16 µM (inactive),> 7.94 µM (inactive),> 7.94 µM (inactive),> 6.31 µM (inactive),> 7.94 µM (inactive),> 7.94 µM (inactive),> 5.01 µM (inactive),> 5.01 µM (inactive),> 3.98 µM (inactive),> 3.98 µM (inactive),> 10 µM (inactive),> 2 µM (inactive),> 5.01 µM (inactive),–,–
CCc1ccc(S(=O)(=O)/N=C2\C=C(NS(=O)(=O)c3ccccc3)C(=O)c3ccccc32)cc1,–,–,–,–,–,–,–,–,–,–,–,–,–,–,13.3 µM (active),3.08 µM (active)
